Patent publication US4362727A, “5-Substituted 9-cyanomethylene-dithieno[3,4-b:4,3-e]-azepines and therapeutic agents which contain these compounds” (priority 1981, dated 1982)

Columns and labels:
[1] = tested on: tonic extension reflex in the gastrocnemius; assay: Muscle-relaxing action (tonic extension reflex); type: in vivo, rabbits; settings: rabbit, intravenous; for Muscle relaxation R.E.: clozapine = 1.0
Procedure: 2. […] The rabbit is kept in a special apparatus which allows it to flex its paw at the talocalcanean joint in a defined and reproducible manner. The flexing triggers off a tonic extension reflex in the calf muscles. The electrical activity of the muscle during the contraction is recorded, and the individual pulses are counted. The extension (lasting 5 seconds) is repeated at intervals of one minute. […] The numbers of pulses following the administration are compared with the initial values.

[2] = tested on: orientation hypermotility; assay: Sedative action (orientation hypermotility); type: in vivo, female NMRI mice; settings: mice, oral; clozapine = 1.0
Procedure: 4-8 groups each of 3 female NMRI mice are given the compound orally. The orientation hypermotility induced by a new environment is determined photoelectrically, for a period of 30 minutes, starting 30 minutes after administration of the substances.

[3] = tested on: methamphetamine-induced sniffing movements; assay: Antimethamphetamine action (methamphetamine antagonism); type: in vivo; settings: rats, intraperitoneal; clozapine = 1.0
Procedure: 3. Antimethamphetamine action
Methamphetamine.HCl (2.5 mg/kg administered intravenously) regularly causes the following symptoms in rats: motor restlessness, searching and sniffing movements, fur standing on end, and tremor (Janssen et al., Arzneim.-Forsch./Drug Res. 13 (1963), 205; and Randrup et al., Psychopharmacologia 11 (1967), 300). The test substances are administered intraperitoneally 30 minutes before methamphetamine. The substance is considered to have an effect if no sniffing movements are observed for a period of 5 minutes after the injection of methamphetamine. The mean inhibition dose (ED50%) is determined, by means of probit analysis, as the dose which prevents the occurrence of the symptom in half the animals.

[4] = tested on: pilocarpine-induced scratching movements; assay: Anticholinergic action on the central nervous system (pilocarpine); type: in vivo; settings: rats, intraperitoneal; clozapine = 1.0
Procedure: 4. Anticholinergic action on the central nervous system
To test the anticholinergic action on the central nervous system, cholinergic stimulation is triggered off by pilocarpine. After rapid intravenous injection of pilocarpine.HCl (50 mg/kg) rats display alternating scratching movements of their rear paws; further symptoms triggered off in the central nervous system are jaw movements and tremors. […] The test substances are administered intraperitoneally 30 minutes before pilocarpine. The substance is considered to have an effect if no scratching is observed for a period of 2 minutes after the injection of pilocarpine. For this symptom, the mean inhibition dose (ED50%) is determined, by means of probit analysis by the method of Finney, as the dose of the test substance which suppresses the scratching in half the animals.

SMILES | Muscle relaxation R.E. [1] | Sedation R.E. [2] | Methamphetamine antagonism R.E. [3] | ED50 ([1]; Oryctolagus cuniculus, pulses compared with initial values, read-out: Muscle relaxation ED 50%) | Anticholinergic action on the central nervous system R.E. [4]
CN1CCN(C2=Nc3c(csc3Cl)C(=CC#N)c3cscc32)CC1 (mixture of isomers) [Example 2, Cis/trans-3-chloro-9-cyanomethylene-5-(4-methylpiperazin-1-yl)-dithieno[3,4-b:4',3'-e]azepine] | 0.56 | 0.49 | – | – | –
CCN1CCN(C2=Nc3cscc3C(=CC#N)c3cscc32)CC1 (mixture of isomers) [Example 6, Cis/trans-9-cyanomethylene-5-(4-ethyl-piperazin-1-yl)dithieno[3,4-b:4',3'-e]azepine] | 0.21 | 0.44 | 0.88 | – | –
CN1CCN(C2=Nc3cc(Cl)ccc3Nc3ccccc32)CC1 [Clozapine] | 1.0 | 1.0 | 1.0 | 0.046 mg/kg | 1.0
CN1CCN(C2=Nc3cscc3C(=CC#N)c3cscc32)CC1 [Example 1a, 9-cyanomethylene-5-(4-methyl-piperazin-1-yl)-dithieno[3,4-b:4',3'-e]azepine] | 0.33 | 0.64 | – | – | 1.1
CN1CCN(C2=Nc3ccccc3Cc3ccccc32)CC1 [Perlapine] | 0.42 | – | 1.2 | – | 0.22
